According to patent US20190029257A1, “APPLICATION FOR HERBICIDE-TOLERANT PROTEIN” (BEIJING DABEINONG TECHNOLOGY GROUP CO., LTD., priority 2016, published 2019):

Tested on: wild-type Arabidopsis thaliana plants
Assay: Herbicide tolerance of Arabidopsis thaliana plants (spray, resistance classes counted)
Assay type: in vivo
Description: T1 transformants were initially selected from the background of untransformed seeds using a glufosinate selection scheme. About 40000 T1 seeds were screened, and 380 T1 positive transformants (PAT gene) were identified with a transformation efficiency of about 0.95%. The plants that were transformed with the recombinant expression vector DBN100632 were Arabidopsis thaliana plants having an ALT-1-01 nucleotide sequence located in the cytoplasm introduced (At cytoplasmic ALT-1-01), and the plants that were transformed with the recombinant expression vector DBN100631 were Arabidopsis thaliana plants having an ALT-1-01 nucleotide sequence located in the chloroplast introduced (At chloroplastic ALT-1-01); the plants that were transformed with the recombinant expression vector DBN100634 were Arabidopsis thaliana plants having an ALT-2-01 nucleotide sequence located in the cytoplasm introduced (At cytoplasmic ALT-2-01), and the plants that were transformed with the recombinant expression vector DBN100633 were Arabidopsis thaliana plants having an ALT-2-01 nucleotide sequence located in the chloroplast introduced (At chloroplastic ALT-2-01); and the plants that were transformed with the recombinant expression vector DBN100636 were Arabidopsis thaliana plants having an ALT-3-01 nucleotide sequence located in the cytoplasm introduced (At cytoplasmic ALT-3-01), and the plants that were transformed with the recombinant expression vector DBN100635 were Arabidopsis thaliana plants having an ALT-3-01 nucleotide sequence located in the chloroplast introduced (At chloroplastic ALT-3-01). The herbicide tolerance effects of At cytoplasmic ALT-1-01 T1 plants, At chloroplastic ALT-1-01 T1 plants, At cytoplasmic ALT-2-01 T1 plants, At chloroplastic ALT-2-01 T1 plants, At cytoplasmic ALT-3-01 T1 plants, At chloroplastic ALT-3-01 T1 plants and wild-type Arabidopsis thaliana plants on halosulfuron-methyl were detected (14 days after sowing), respectively.
At cytoplasmic ALT-1-01 T1 plants, At chloroplastic ALT-1-01 T1 plants, At cytoplasmic ALT-2-01 T1 plants, At chloroplastic ALT-2-01 T1 plants, At cytoplasmic ALT-3-01 T1 plants, At chloroplastic ALT-3-01 T1 plants and wild-type Arabidopsis thaliana plants were sprayed with halosulfuron-methyl (34 g ai/ha, 1-fold field concentration) and a blank solvent (water), respectively. Plants were counted for the resistance situations 14 days after spraying: those having a consistent growth status with the blank solvent (water) group after 14 days were classified as highly resistant plants, those having a bolting height less than ½ of that of the blank solvent (water) group after 14 days were classified as moderately resistant plants, those still not capable of bolting after 14 days were classified as poorly resistant plants, and those dead after 14 days were classified as non-resistant plants. Since each Arabidopsis thaliana T1 plant was an independent transformation event, a significant difference in individual T1 responses could be expected at a given dose.
At cytoplasmic ALT-1-01 T1 plants, At chloroplastic ALT-1-01 T1 plants, At cytoplasmic ALT-2-01 T1 plants, At chloroplastic ALT-2-01 T1 plants, At cytoplasmic ALT-3-01 T1 plants, At chloroplastic ALT-3-01 T1 plants and wild-type Arabidopsis thaliana plants in Example 4 were sprayed with iodosulfuron-methyl (10 g ai/ha, 1-fold field concentration), mesosulfuron (14 g ai/ha, 1-fold field concentration) and oxasulfuron (60 g ai/ha, 1-fold field concentration), respectively, in addition to halosulfuron-methyl (34 g ai/ha, 1-fold field concentration) and the blank solvent (water). […]

[1] = 18 g ai/ha (1x Hal.), number of plants 14 days after spraying, Total 32

## COC(=O)c1c(Cl)nn(C)c1S(=O)(=O)NC(=O)Nc1nc(OC)cc(OC)n1 [halosulfuron-methyl, 3-chlorine-5-(4,6-dimethoxypyrimidine-2-aminocarbonylaminosulphonyl)-1-methylpyrazole-4-carboxylic acid methyl ester]
[1]
  Highly resistant: 0
  Moderately resistant: 0
  Non-resistant: 32
  Poorly resistant: 0
34 g ai/ha, summary of Table 1 and FIG. 4
  tolerance of the plants to the herbicide: none of the wild-type Arabidopsis thaliana plants was tolerant
